Common to all, as to assay type: biochemical
One test addresses CDK4 (Homo sapiens, UniProt P11802). Nature of the test: CDK4 HTRF assay. To be noted: Table E; read-out: CDK4 HTRF/IC50 [umol l − 1]. In general terms: In TR-FRET formats the signal depends on donor and acceptor labels being close together.
Test [1] deals with CDK2/Cyclin-A kinase complex (Homo sapiens, UniProt P24941). Put plainly: CDK2 IMAP fluorescence polarization assay. Conditions: Table E; read-out: CDK2cyA IMAP/IC50 [umol l − 1]. In outline: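 Fluorescence polarization (IMAP) using purified active CDK2/Cyclin-A complex with a TAMRA-tagged Histone H1-derived peptide substrate; phosphorylated peptide bound by a metal-containing reagent raises polarization. Inhibition read as reduced fluorescence polarization signal.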
In general terms: Fluorescence polarisation rises when a labelled molecule tumbles more slowly, as on binding a larger partner.

A further test concerns the target hCDK1/B (Homo sapiens, UniProt P06493). Nature of the test: hCDK1/B assay. Conditions: Table E; read-out: hCDK1/B/IC50 [umol l − 1].

Where “and” joins values, the source holds several entries; their conditions need not be identical. Equal values may be shown once. Bounds are passed on as bounds.

Chain of CDK4 (P11802 whole entry): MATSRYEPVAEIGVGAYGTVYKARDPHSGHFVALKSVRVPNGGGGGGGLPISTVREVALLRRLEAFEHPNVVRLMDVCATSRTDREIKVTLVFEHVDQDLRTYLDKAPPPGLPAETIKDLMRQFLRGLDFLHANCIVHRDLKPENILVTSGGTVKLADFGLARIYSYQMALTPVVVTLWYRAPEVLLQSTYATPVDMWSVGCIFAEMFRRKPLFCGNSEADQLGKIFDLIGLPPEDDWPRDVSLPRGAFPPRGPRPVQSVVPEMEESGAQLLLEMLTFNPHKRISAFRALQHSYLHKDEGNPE
Chain of CDK4 (P24385 whole entry partner): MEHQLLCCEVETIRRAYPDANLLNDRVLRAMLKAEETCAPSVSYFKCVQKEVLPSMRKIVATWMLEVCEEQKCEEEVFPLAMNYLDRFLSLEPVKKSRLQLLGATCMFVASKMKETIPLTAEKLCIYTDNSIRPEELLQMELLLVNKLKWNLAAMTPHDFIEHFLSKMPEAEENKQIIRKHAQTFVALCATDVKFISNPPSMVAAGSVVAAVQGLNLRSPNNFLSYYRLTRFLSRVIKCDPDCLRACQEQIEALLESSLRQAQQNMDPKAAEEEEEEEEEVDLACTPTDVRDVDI
Chain of hCDK1/B (P06493 whole entry): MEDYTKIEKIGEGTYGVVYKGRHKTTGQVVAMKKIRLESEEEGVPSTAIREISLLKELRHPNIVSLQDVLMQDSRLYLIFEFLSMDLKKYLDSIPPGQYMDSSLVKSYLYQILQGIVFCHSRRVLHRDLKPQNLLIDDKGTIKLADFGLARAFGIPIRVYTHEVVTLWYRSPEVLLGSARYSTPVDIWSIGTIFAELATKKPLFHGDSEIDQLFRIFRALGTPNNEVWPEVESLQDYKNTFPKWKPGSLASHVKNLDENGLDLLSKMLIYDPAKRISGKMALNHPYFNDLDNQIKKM
Chain of hCDK1/B (P14635 whole entry partner): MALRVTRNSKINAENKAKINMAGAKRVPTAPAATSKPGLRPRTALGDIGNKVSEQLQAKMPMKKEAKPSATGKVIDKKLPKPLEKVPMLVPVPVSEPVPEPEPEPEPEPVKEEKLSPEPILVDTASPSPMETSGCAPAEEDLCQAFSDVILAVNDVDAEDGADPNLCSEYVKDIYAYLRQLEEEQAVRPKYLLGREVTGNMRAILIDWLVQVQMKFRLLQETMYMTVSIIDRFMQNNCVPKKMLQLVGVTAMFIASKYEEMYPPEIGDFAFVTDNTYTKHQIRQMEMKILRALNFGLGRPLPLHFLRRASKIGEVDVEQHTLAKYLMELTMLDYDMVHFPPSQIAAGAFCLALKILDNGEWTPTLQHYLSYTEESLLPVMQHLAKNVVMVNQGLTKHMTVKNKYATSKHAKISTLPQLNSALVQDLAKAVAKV

As to `CN(C)C(=O)c1cc2cnc(Nc3ccc(CN4CCOCC4)cc3)nc2n1C1CCCC1` [Example 340], the values for the IC50 (at CDK4; in test [1]; at hCDK1/B) were less than 1 µM, less than 10 µM and less than 10 µM, respectively.
Turning to `CCC(CC)n1c(C(=O)Nc2cc[nH]n2)cc2cnc(Nc3ccc(N4CCNCC4)cc3)nc21` [Example 356], the values for the IC50 (at CDK4; in test [1]; at hCDK1/B) were less than 1 µM, less than 10 µM and less than 10 µM, respectively.
In the case of `Cc1cn(C2CCCC2)c2nc(Nc3ccccc3)ncc12` [Example 277], the IC50 (at CDK4; in test [1]; on hCDK1/B) was greater than 10 µM each time.
As to `CCC(CC)n1c(C(=O)Nc2ccccn2)cc2cnc(Nc3ccc(N4CCNCC4)cc3)nc21` [Example 351], the IC50 on CDK4 was less than 1 µM; in test [1], less than 10 µM; on hCDK1/B it was less than 10 µM.
Consider `CCC(CC)n1c(C(=O)Nc2cccc(C(C)(C)C)c2)cc2cnc(Nc3ccc(N4CCNCC4)cc3)nc21` [Example 358], for which the figures for the IC50 (at CDK4; in test [1]; at hCDK1/B) were less than 1 µM, greater than 15 µM and greater than 15 µM, respectively.
With `Cc1c(C#N)n(C2CCCC2)c2nc(Nc3ccc(N4CCNCC4)cn3)ncc12` [Example 393], the IC50 was less than 1 µM on CDK4, less than 10 µM in test [1] and less than 10 µM at hCDK1/B.
On to `CCC(CC)n1c(C(=O)Nc2cccc(F)c2)cc2cnc(Nc3ccc(N4CCNCC4)cc3)nc21` [Example 357], for which the IC50 at CDK4 is less than 1 µM; in test [1], less than 10 µM; on hCDK1/B, less than 10 µM.
`Cc1c(-c2cnco2)n(C2CCCC2)c2nc(Nc3ccc(N4CCNCC4)cc3)ncc12` [Example 398]: the IC50 (on CDK4; in test [1]; on hCDK1/B) was less than 1 µM in each case.
In the case of `CCC(CC)n1c(C(=O)Nc2ccc(C(F)(F)F)cc2)cc2cnc(Nc3ccc(N4CCNCC4)cc3)nc21` [Example 359], the IC50 was less than 1 µM on CDK4, less than 10 µM in test [1] and less than 10 µM at hCDK1/B.
With `Cc1cn(C2CCC(O)C2)c2nc(Nc3ccc(CN4CCNCC4)cc3)ncc12` (stereo not drawn) [Example 316], the IC50 was less than 1 µM at CDK4, less than 1 µM in test [1] and less than 10 µM on hCDK1/B.
With `Cc1c(-c2cnco2)n(C2CCCC2)c2nc(Nc3ccc(CN4CCNCC4)cn3)ncc12` [Example 403], the IC50 on CDK4 is less than 1 µM; in test [1], less than 10 µM; at hCDK1/B, less than 10 µM.
Regarding `Cc1c(-c2cnco2)n(C2CCCCCC2)c2nc(Nc3ccc(N4CCNCC4)cn3)ncc12` [Example 400], the IC50 (at CDK4; in test [1]; on hCDK1/B) was less than 1 µM each time.
For the compound `CCC(CC)n1c(C(=O)Nc2ccc(C)cc2)cc2cnc(Nc3ccc(N4CCNCC4)cc3)nc21` [Example 348], the IC50 is less than 1 µM at CDK4, greater than 15 µM in test [1] and greater than 15 µM at hCDK1/B.
On to `CCC(CC)n1c(CNc2ccon2)cc2cnc(Nc3ccc(N4CCN(C(C)=O)CC4)cc3)nc21` [Example 371], for which the IC50 in test [1] is less than 10 µM; on hCDK1/B, less than 1 µM.
Regarding `CC(=O)c1c(C)c2cnc(Nc3ccc(N4CCNCC4)cn3)nc2n1C1CCCCCC1` [Example 389], the IC50 on CDK4 is less than 1 µM; in test [1], less than 10 µM; on hCDK1/B, greater than 10 µM.
With `CCC(CC)n1c(CNC2CCCC2)cc2cnc(Nc3ccc(N4CCN(C(C)=O)CC4)cc3)nc21` [Example 370], the IC50 (in test [1]; on hCDK1/B) was less than 10 µM each time.
Regarding `Cc1cn(C2CCCC2)c2nc(Nc3ccc4[nH]c(=O)[nH]c4c3)ncc12` [Example 279], the IC50 on CDK4 was less than 1 µM; in test [1], less than 10 µM; on hCDK1/B, less than 10 µM.
With `CCC(CC)n1c(CNc2cccnc2)cc2cnc(Nc3ccc(N4CCN(C(C)=O)CC4)cc3)nc21` [Example 369], the IC50 (in test [1]; on hCDK1/B) was less than 10 µM in each case.
For `CCC(CC)n1c(C(=O)Nc2ccncc2)cc2cnc(Nc3ccc(N4CCNCC4)cc3)nc21` [Example 353], the IC50 on CDK4 is less than 1 µM; in test [1], greater than 15 µM; at hCDK1/B it was greater than 15 µM.
As for `Cc1cn(C2CCCC2)c2nc(Nc3ccc(CN4CCNC(=O)C4)cc3)ncc12` [Example 290], the figures for the IC50 (on CDK4; in test [1]; on hCDK1/B) were less than 1 µM, less than 10 µM and less than 10 µM, respectively.
Take `CCC(CC)n1c(C(=O)Nc2ccc(OC)cc2)cc2cnc(Nc3ccc(N4CCNCC4)cc3)nc21` [Example 347]: the figures for the IC50 (on CDK4; in test [1]; at hCDK1/B) were less than 1 µM, greater than 10 µM and greater than 10 µM, respectively.
`Cc1c(-c2cnco2)n(C2CCCC2)c2nc(Nc3ccc(CN4CCNCC4)cc3)ncc12` [Example 402]: the IC50 (at CDK4; in test [1]; on hCDK1/B) was less than 1 µM in each case.
`CCC(CC)n1c(CNc2cc(C)[nH]n2)cc2cnc(Nc3ccc(N4CCN(C(C)=O)CC4)cc3)nc21` [Example 372]: the IC50 in test [1] was less than 1 µM; on hCDK1/B, less than 10 µM.
Take `Cc1c(C#N)n(C2CCCC2)c2nc(Nc3ccc(N4CCC(N(C)C)CC4)cc3)ncc12` [Example 395]: the IC50 (at CDK4; in test [1]; at hCDK1/B) was less than 1 µM throughout.
`CN(C)C(=O)c1cc2cnc(NCc3ccc(N4CCN(C(=O)OC(C)(C)C)CC4)cc3)nc2n1C1CCCC1` [Example 468]: the values for the IC50 (at CDK4; in test [1]; at hCDK1/B) were greater than 10 µM, greater than 15 µM and greater than 15 µM, respectively.
As for `Cc1cn(C2CCCC2)c2nc(Nc3ccc(CO)cc3)ncc12` [Example 466], the IC50 (in test [1]; at hCDK1/B) was less than 10 µM throughout.
Consider `Cc1cn(C2CCCC2)c2nc(Nc3ccc(-n4ccnc4)cc3)ncc12` [Example 312], for which the IC50 (in test [1]; at hCDK1/B) was less than 10 µM in each case.
As for `CCC(CC)n1c(C(=O)Nc2cccc(C(F)(F)F)c2)cc2cnc(Nc3ccc(N4CCNCC4)cc3)nc21` [Example 350], the IC50 was less than 1 µM at CDK4, greater than 15 µM in test [1] and greater than 10 µM at hCDK1/B.
`Cc1cn(C2CCCC2)c2nc(Nc3ccc(N4CCOCC4)cn3)ncc12` [Example 302]: the IC50 (in test [1]; on hCDK1/B) was greater than 10 µM in each case.
With `Cc1cn(C2CCCC2)c2nc(Nc3ccc(CN4CCN(C(=O)OC(C)(C)C)CC4)cc3)ncc12` [Example 462], the IC50 (in test [1]; on hCDK1/B) was greater than 15 µM throughout.
As for `CCC(CC)n1c(C(=O)Nc2ccc(CN3CCN(C)CC3)cc2)cc2cnc(Nc3ccc(N4CCNCC4)cc3)nc21` [Example 354], the IC50 (in test [1]; on hCDK1/B) was greater than 15 µM throughout.
For `CC1CCC(n2ccc3cnc(Nc4ccc(N5CCNCC5)cc4)nc32)C1` (stereo not drawn) [Example 239], the IC50 on CDK4 was less than 1 µM; in test [1], less than 10 µM; at hCDK1/B, less than 1 µM.
`CCC(CC)n1c(CNCCc2cc3ccccc3[nH]2)cc2cnc(Nc3ccc(N4CCN(C(C)=O)CC4)cc3)nc21` [Example 368]: the IC50 on CDK4 was less than 1 µM; in test [1] it was less than 1 µM; on hCDK1/B, less than 10 µM.
On to `Cc1cn(C2CCC(O)C2)c2nc(Nc3ccc(CN4CCOCC4)cc3)ncc12` (stereo not drawn) [Example 315], for which the values for the IC50 (on CDK4; in test [1]; on hCDK1/B) were less than 1 µM, less than 1 µM and less than 10 µM, respectively.
Regarding `Cc1cn(C2CCCC2)c2nc(Nc3ccc(N4CCNCC4)cc3)ncc12` [Example 266], the IC50 on CDK4 was less than 1 µM; on hCDK1/B it was less than 10 µM.
For the compound `CN(C)C(=O)c1cc2cnc(Nc3ccc(N4CCN(C(=O)OC(C)(C)C)CC4)cc3)nc2n1C1CCCC1` [Example 463], the IC50 is less than 1 µM at CDK4, less than 10 µM in test [1] and less than 10 µM on hCDK1/B.
Consider `CCC(CC)n1c(C(=O)Nc2ccc(C(C)(C)C)cc2)cc2cnc(Nc3ccc(N4CCNCC4)cc3)nc21` [Example 349], for which the IC50 (in test [1]; on hCDK1/B) was greater than 15 µM each time.
In the case of `CN(C)C(=O)c1cc2cnc(Nc3ccc(C4CCNCC4)cc3)nc2n1C1CCCC1` [Example 341], the IC50 at CDK4 was less than 1 µM; in test [1], greater than 10 µM; on hCDK1/B it was less than 10 µM.
For `Cc1cn(-c2c[nH]cn2)c2nc(Nc3ccc(N4CCNCC4)cn3)ncc12` [Example 324], in that order: less than 1 µM, greater than 10 µM and greater than 10 µM.
For `CCC(CC)n1c(C(=O)N(C)C)cc2cnc(Nc3ccc(CN4CCNCC4)cc3)nc21` [Example 342], in that order: less than 1 µM, less than 10 µM and less than 10 µM.
Turning to `Cc1c(-c2cnco2)n(C2CCCC2)c2nc(Nc3ccc(CN4CCOCC4)cc3)ncc12` [Example 401], the IC50 (at CDK4; in test [1]; on hCDK1/B) was less than 1 µM each time.
For `Cc1cn(C2CCCC2)c2nc(Nc3ccc(N(C)C)cc3)ncc12` [Example 311], the IC50 (in test [1]; on hCDK1/B) was greater than 10 µM in each case.
With `OC1CCC(n2ccc3cnc(Nc4ccc(N5CCNCC5)cc4)nc32)C1` (stereo not drawn) [Example 247], the IC50 (on CDK4; in test [1]; on hCDK1/B) was less than 1 µM in each case.
`CCC(CC)n1c(C(=O)Nc2cccnc2)cc2cnc(Nc3ccc(N4CCNCC4)cc3)nc21` [Example 352]: the figures for the IC50 (at CDK4; in test [1]; at hCDK1/B) were less than 1 µM, greater than 10 µM and less than 10 µM, respectively.
Regarding `Cc1c(C(=O)N(C)C)n(C2CCCC2)c2nc(Nc3ccc(N4CCNCC4)cn3)ncc12` [Example 392], the IC50 in test [1] is less than 10 µM; at hCDK1/B it was greater than 10 µM.
`CN(C)C(=O)c1cc2cnc(NCc3ccc(N4CCNCC4)cc3)nc2n1C1CCCC1` [Example 467]: the IC50 (in test [1]; on hCDK1/B) was greater than 15 µM throughout.
With `c1cc(N2CCNCC2)ccc1Nc1ncc2ccn(C3CCCCCC3)c2n1` [Example 232], the IC50 on CDK4 is > 10 µM and < 1 µM; on hCDK1/B it was greater than 10 µM.

These data come from patent US20120207763A1, “PYRROLOPYRIMIDINE COMPOUNDS AND THEIR USES” (ASTEX THERAPEUTICS LIMITED, priority 2006, published 2012).
